# Measurements from PMC12260505, “First-in-Human Phase I/IIa Study of the First-in-Class CDK2/4/6 Inhibitor PF-06873600 Alone or with Endocrine Therapy in Patients with Breast Cancer” (Clinical Cancer Research, 2025).
# Assay: Adverse events graded by NCI CTCAE version 4.03, phase I/IIa study
# Assay type: in vivo
# Method: Part 1 included adult patients with HR^+/HER2^− advanced breast cancer or mBC (third- or fourth-line setting), locally recurrent/advanced or metastatic TNBC, or advanced platinum-resistant epithelial ovarian cancer/fallopian tube cancer/primary peritoneal cancer who received oral PF-06873600 at doses of 1 to 50 mg twice daily or oral PF-06873600 plus ET (letrozole or fulvestrant). Primary endpoints for part 1 dose escalation determined safety and tolerability to define dose-limiting toxicities (DLT), estimate the maximum tolerated dose, and select the recommended dose for expansion (RDE). Safety endpoints included adverse events (AE) characterized by type, frequency, severity [as graded by NCI Common Terminology Criteria for Adverse Events (CTCAE) version 4.03], timing, seriousness, and relationship to study therapy. Laboratory abnormalities were characterized by type, frequency, severity (as graded by NCI CTCAE version 4.03), timing, vital sign abnormalities, and heart rate–corrected QT interval (e.g., QTcF). Secondary endpoints included PK, preliminary antitumor activity as assessed using RECIST version 1.1, time-to-event endpoints including objective response rate (ORR), duration of response (DoR), progression-free survival (PFS), time to progression (TTP), and modulation of tumor CDK biomarkers [phosphorylated Rb (pRb), Ki67]. Exploratory endpoints included molecular profiling of tumor and ctDNA and the relationship to clinical outcome.
# AEs were graded by NCI CTCAE version 4.03.
# [1] = Part 2A 25 mg BID IR + Fulvestrant, N = 45
# [2] = Part 2C 25 mg BID IR + Fulvestrant, N = 28
compound,measurement,setting,value
C[C@@]1(O)CCC[C@H]1n1c(=O)c(C(F)F)cc2cnc(NC3CCN(S(C)(=O)=O)CC3)nc21 [PF-06873600],"Treatment-related TEAE, Abdominal pain, Grade 1",[1],7 (15.6) n (%)
same,"Treatment-related TEAE, Abdominal pain, Grade 2",[1],1 (2.2) n (%)
same,"Treatment-related TEAE, Abdominal pain, Grade 3/4",[1],0 n (%)
same,"Treatment-related TEAE, Abdominal pain, Grade 5",[1],0 n (%)
same,"Treatment-related TEAE, Abdominal pain, Total",[1],8 (17.8) n (%)
same,"Treatment-related TEAE, Alopecia, Grade 1",[1],7 (15.6) n (%)
same,"Treatment-related TEAE, Alopecia, Grade 2",[1],9 (20.0) n (%)
same,"Treatment-related TEAE, Alopecia, Grade 3/4",[1],0 n (%)
same,"Treatment-related TEAE, Alopecia, Grade 5",[1],0 n (%)
same,"Treatment-related TEAE, Alopecia, Total",[1],16 (35.6 ) n (%)
same,"Treatment-related TEAE, Anemia, Grade 1",[1],3 (6.7) n (%)
same,"Treatment-related TEAE, Anemia, Grade 2",[1],10 (22.2 ) n (%)
same,"Treatment-related TEAE, Anemia, Grade 3/4",[1],7 (15.6) n (%)
same,"Treatment-related TEAE, Anemia, Grade 5",[1],0 n (%)
same,"Treatment-related TEAE, Anemia, Total",[1],20 (44.4 ) n (%)
same,"Treatment-related TEAE, Any adverse event, Grade 1",[1],9 (20.0) n (%)
same,"Treatment-related TEAE, Any adverse event, Grade 2",[1],17 (37.8 ) n (%)
same,"Treatment-related TEAE, Any adverse event, Grade 3/4",[1],19 (42.2 ) n (%)
same,"Treatment-related TEAE, Any adverse event, Grade 5",[1],0 n (%)
same,"Treatment-related TEAE, Any adverse event, Total",[1],45 (100. 0) n (%)
same,"Treatment-related TEAE, Constipation, Grade 1",[1],4 (8.9) n (%)
same,"Treatment-related TEAE, Constipation, Grade 2",[1],5 (11.1) n (%)
same,"Treatment-related TEAE, Constipation, Grade 3/4",[1],0 n (%)
same,"Treatment-related TEAE, Constipation, Grade 5",[1],0 n (%)
same,"Treatment-related TEAE, Constipation, Total",[1],9 (20.0) n (%)
same,"Treatment-related TEAE, Decreased appetite, Grade 1",[1],6 (13.3) n (%)
same,"Treatment-related TEAE, Decreased appetite, Grade 2",[1],1 (2.2) n (%)
same,"Treatment-related TEAE, Decreased appetite, Grade 3/4",[1],0 n (%)
same,"Treatment-related TEAE, Decreased appetite, Grade 5",[1],0 n (%)
same,"Treatment-related TEAE, Decreased appetite, Total",[1],7 (15.6) n (%)
same,"Treatment-related TEAE, Diarrhea, Grade 1",[1],7 (15.6) n (%)
same,"Treatment-related TEAE, Diarrhea, Grade 2",[1],1 (2.2) n (%)
same,"Treatment-related TEAE, Diarrhea, Grade 3/4",[1],2 (4.4) n (%)
same,"Treatment-related TEAE, Diarrhea, Grade 5",[1],0 n (%)
same,"Treatment-related TEAE, Diarrhea, Total",[1],10 (22.2 ) n (%)
same,"Treatment-related TEAE, Dizziness, Grade 1",[1],6 (13.3) n (%)
same,"Treatment-related TEAE, Dizziness, Grade 2",[1],2 (4.4) n (%)
same,"Treatment-related TEAE, Dizziness, Grade 3/4",[1],0 n (%)
same,"Treatment-related TEAE, Dizziness, Grade 5",[1],0 n (%)
same,"Treatment-related TEAE, Dizziness, Total",[1],8 (17.8) n (%)
same,"Treatment-related TEAE, Fatigue, Grade 1",[1],10 (22.2 ) n (%)
same,"Treatment-related TEAE, Fatigue, Grade 2",[1],13 (28.9 ) n (%)
same,"Treatment-related TEAE, Fatigue, Grade 3/4",[1],5 (11.1) n (%)
same,"Treatment-related TEAE, Fatigue, Grade 5",[1],0 n (%)
same,"Treatment-related TEAE, Fatigue, Total",[1],28 (62.2 ) n (%)
same,"Treatment-related TEAE, Headache, Grade 1",[1],12 (26.7 ) n (%)
same,"Treatment-related TEAE, Headache, Grade 2",[1],4 (8.9) n (%)
same,"Treatment-related TEAE, Headache, Grade 3/4",[1],0 n (%)
same,"Treatment-related TEAE, Headache, Grade 5",[1],0 n (%)
same,"Treatment-related TEAE, Headache, Total",[1],16 (35.6 ) n (%)
same,"Treatment-related TEAE, Leukopenia, Grade 1",[1],1 (2.2) n (%)
same,"Treatment-related TEAE, Leukopenia, Grade 2",[1],8 (17.8) n (%)
same,"Treatment-related TEAE, Leukopenia, Grade 3/4",[1],2 (4.4) n (%)
same,"Treatment-related TEAE, Leukopenia, Grade 5",[1],0 n (%)
same,"Treatment-related TEAE, Leukopenia, Total",[1],11 (24.4 ) n (%)
same,"Treatment-related TEAE, Nausea, Grade 1",[1],22 (48.9 ) n (%)
same,"Treatment-related TEAE, Nausea, Grade 2",[1],6 (13.3) n (%)
same,"Treatment-related TEAE, Nausea, Grade 3/4",[1],1 (2.2) n (%)
same,"Treatment-related TEAE, Nausea, Grade 5",[1],0 n (%)
same,"Treatment-related TEAE, Nausea, Total",[1],29 (64.4 ) n (%)
same,"Treatment-related TEAE, Neutropenia, Grade 1",[1],4 (8.9) n (%)
same,"Treatment-related TEAE, Neutropenia, Grade 2",[1],5 (11.1) n (%)
same,"Treatment-related TEAE, Neutropenia, Grade 3/4",[1],13 (28.9 ) n (%)
same,"Treatment-related TEAE, Neutropenia, Grade 5",[1],0 n (%)
same,"Treatment-related TEAE, Neutropenia, Total",[1],22 (48.9 ) n (%)
same,"Treatment-related TEAE, Thrombocytopenia, Grade 1",[1],5 (11.1) n (%)
same,"Treatment-related TEAE, Thrombocytopenia, Grade 2",[1],2 (4.4) n (%)
same,"Treatment-related TEAE, Thrombocytopenia, Grade 3/4",[1],3 (6.7) n (%)
same,"Treatment-related TEAE, Thrombocytopenia, Grade 5",[1],0 n (%)
same,"Treatment-related TEAE, Thrombocytopenia, Total",[1],10 (22.2 ) n (%)
same,"Treatment-related TEAE, Vomiting, Grade 1",[1],12 (26.7 ) n (%)
same,"Treatment-related TEAE, Vomiting, Grade 2",[1],3 (6.7) n (%)
same,"Treatment-related TEAE, Vomiting, Grade 3/4",[1],1 (2.2) n (%)
same,"Treatment-related TEAE, Vomiting, Grade 5",[1],0 n (%)
same,"Treatment-related TEAE, Vomiting, Total",[1],16 (35.6 ) n (%)
same,"Treatment-related TEAE, Abdominal pain, Grade 1",[2],0 n (%)
same,"Treatment-related TEAE, Abdominal pain, Grade 2",[2],0 n (%)
same,"Treatment-related TEAE, Abdominal pain, Grade 3/4",[2],0 n (%)
same,"Treatment-related TEAE, Abdominal pain, Grade 5",[2],0 n (%)
same,"Treatment-related TEAE, Abdominal pain, Total",[2],0 n (%)
same,"Treatment-related TEAE, Alopecia, Grade 1",[2],6 (21.4) n (%)
same,"Treatment-related TEAE, Alopecia, Grade 2",[2],2 (7.1) n (%)
same,"Treatment-related TEAE, Alopecia, Grade 3/4",[2],0 n (%)
same,"Treatment-related TEAE, Alopecia, Grade 5",[2],0 n (%)
same,"Treatment-related TEAE, Alopecia, Total",[2],8 (28.6) n (%)
same,"Treatment-related TEAE, Anemia, Grade 1",[2],4 (14.3) n (%)
same,"Treatment-related TEAE, Anemia, Grade 2",[2],3 (10.7) n (%)
same,"Treatment-related TEAE, Anemia, Grade 3/4",[2],3 (10.7) n (%)
same,"Treatment-related TEAE, Anemia, Grade 5",[2],0 n (%)
same,"Treatment-related TEAE, Anemia, Total",[2],10 (35.7 ) n (%)
same,"Treatment-related TEAE, Any adverse event, Grade 1",[2],7 (25.0) n (%)
same,"Treatment-related TEAE, Any adverse event, Grade 2",[2],8 (28.6) n (%)
same,"Treatment-related TEAE, Any adverse event, Grade 3/4",[2],8 (28.6) n (%)
same,"Treatment-related TEAE, Any adverse event, Grade 5",[2],1 (3.6) n (%)
same,"Treatment-related TEAE, Any adverse event, Total",[2],24 (85.7 ) n (%)
same,"Treatment-related TEAE, Constipation, Grade 1",[2],1 (3.6) n (%)
same,"Treatment-related TEAE, Constipation, Grade 2",[2],2 (7.1) n (%)
same,"Treatment-related TEAE, Constipation, Grade 3/4",[2],0 n (%)
same,"Treatment-related TEAE, Constipation, Grade 5",[2],0 n (%)
same,"Treatment-related TEAE, Constipation, Total",[2],3 (10.7) n (%)
same,"Treatment-related TEAE, Decreased appetite, Grade 1",[2],2 (7.1) n (%)
same,"Treatment-related TEAE, Decreased appetite, Grade 2",[2],0 n (%)
same,"Treatment-related TEAE, Decreased appetite, Grade 3/4",[2],0 n (%)
same,"Treatment-related TEAE, Decreased appetite, Grade 5",[2],0 n (%)
same,"Treatment-related TEAE, Decreased appetite, Total",[2],2 (7.1) n (%)
same,"Treatment-related TEAE, Diarrhea, Grade 1",[2],4 (14.3) n (%)
same,"Treatment-related TEAE, Diarrhea, Grade 2",[2],1 (3.6) n (%)
same,"Treatment-related TEAE, Diarrhea, Grade 3/4",[2],0 n (%)
same,"Treatment-related TEAE, Diarrhea, Grade 5",[2],0 n (%)
same,"Treatment-related TEAE, Diarrhea, Total",[2],5 (17.9) n (%)
same,"Treatment-related TEAE, Dizziness, Grade 1",[2],0 n (%)
same,"Treatment-related TEAE, Dizziness, Grade 2",[2],1 (3.6) n (%)
same,"Treatment-related TEAE, Dizziness, Grade 3/4",[2],0 n (%)
same,"Treatment-related TEAE, Dizziness, Grade 5",[2],0 n (%)
same,"Treatment-related TEAE, Dizziness, Total",[2],1 (3.6) n (%)
same,"Treatment-related TEAE, Fatigue, Grade 1",[2],7 (25.0) n (%)
same,"Treatment-related TEAE, Fatigue, Grade 2",[2],0 n (%)
same,"Treatment-related TEAE, Fatigue, Grade 3/4",[2],2 (7.1) n (%)
same,"Treatment-related TEAE, Fatigue, Grade 5",[2],0 n (%)
same,"Treatment-related TEAE, Fatigue, Total",[2],9 (32.1) n (%)
same,"Treatment-related TEAE, Headache, Grade 1",[2],9 (32.1) n (%)
same,"Treatment-related TEAE, Headache, Grade 2",[2],0 n (%)
